What was measured:
AVEFA = assay: Herbicidal pre-emergence action 2a (greenhouse pots, visual scoring); format: in vivo, Avena fatua; settings: dosage 320 g/ha, visual scoring after about 3 weeks
Method in brief: (§1)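 Percent effect (0% like control, 100% plants died) was scored by eye roughly 3 weeks post-application. Formulated compound went onto the soil covering freshly sown seeds in water at 600 l/ha with 0.5% additive; dose 320 g/ha and/or 80 g/ha.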

ALOMY [1] = assay: Herbicidal post-emergence action 1a (greenhouse pots, visual rating); format: in vivo, Alopecurus myosuroides; settings: rated visually about 3 weeks after treatment, 100% = plants have died, 0% = like control plants
Method in brief: (§2)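 Weeds and crops sown in sandy loam in greenhouse pots were sprayed post-emergence at the one-leaf stage (2–3 weeks after sowing) with WP or EC formulations plus 0.5% additive at 600 l/ha water, 320 and/or 80 g/ha. About 3 weeks later damage was rated visually against untreated controls (0% = no effect, 100% = dead).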

harmful plants = assay: Herbicidal post-emergence action 1a, summary across species; format: in vivo; settings: Tables A1 to A15 (320 g/ha and/or 80 g/ha)
Method: a) Seeds of monocotyledonous and dicotyledonous weeds and crop plants are placed in sandy loam in plastic or organic plant pots, covered with soil and cultivated in a greenhouse under controlled growth conditions. 2 to 3 weeks after sowing, the test plants are treated at the one-leaf stage. The compounds of the invention, formulated in the form of wettable powders (WP) or as emulsion concentrates (EC), are then sprayed onto the green parts of the plants as aqueous suspension or emulsion with addition of 0.5% additive at a water application rate of 600 1/ha (converted). After the test plants have been kept in the greenhouse under optimum growth conditions for about 3 weeks, the activity of the preparations is rated visually in comparison to untreated controls. For example, 100% activity=the plants have died, 0% activity=like control plants.
Tables A1 to A15 below show the effects of selected compounds of the general formula (I) according to Tables 1 and 2 on various harmful plants and an application rate corresponding to 320 g/ha and/or 80 g/ha, which were obtained by the experimental procedure mentioned above.
For example, compound nos. I-05, I-07, I-08, I-10, I-12, I-16, I-17, I-22, I-36, I-37, I-39 and I-40 in the post-emergence method have very good action (80% to 100% herbicidal activity) against harmful plants such as Alopecurus myosuroides, Amaranthus retroflexus, Avena fatua, Lolium rigidum, Polygonum convolvulus, Setaria viridis, Veronica persica and Viola tricolor at an application rate of 0.32 kg of active substance per hectare.

DIGSA = assay: Herbicidal post-emergence action 1a (greenhouse pots, visual rating); format: in vivo, Digitaria sanguinalis; settings: rated visually about 3 weeks after treatment, 100% = plants have died, 0% = like control plants
Method in brief: as §2

LOLRI = assay: as above; format: in vivo, Lolium rigidum; settings: rated visually about 3 weeks after treatment, 100% = plants have died, 0% = like control plants
Method in brief: as §2

POLCO = assay: as above; format: in vivo, Polygonum convolvulus; settings: visual rating about 3 weeks after treatment
Method in brief: as §2

ABUTH = assay: as above; format: in vivo, Abutilon theophrasti; settings: visual rating about 3 weeks after treatment
Method in brief: as §2

VERPE = assay: Herbicidal pre-emergence action 2a (greenhouse pots, visual scoring); format: in vivo, Veronica persica; settings: dosage 320 g/ha, visual scoring after about 3 weeks vs untreated controls
Method in brief: as §1

VIOTR [2] = assay: Herbicidal post-emergence action 1a (greenhouse pots, visual rating); format: in vivo, Viola tricolor; settings: visual rating about 3 weeks after treatment
Method in brief: as §2

ECHCG = assay: Herbicidal pre-emergence action 2a (greenhouse pots, visual scoring); format: in vivo, Echinochloa crus-galli; settings: dosage 320 g/ha, visual scoring after about 3 weeks
Method in brief: as §1

PHBPU = assay: Herbicidal post-emergence action 1a (greenhouse pots, visual rating); format: in vivo, Pharbitis purpurea; settings: visual rating about 3 weeks after treatment
Method in brief: as §2

MATIN [3] = assay: Herbicidal pre-emergence action 2a (greenhouse pots, visual scoring); format: in vivo, Matricaria inodora; settings: dosage 320 g/ha, visual scoring after about 3 weeks vs untreated controls
Method in brief: as §1

VIOTR [4] = assay: as above; format: in vivo, Viola tricolor; settings: dosage 320 g/ha, visual scoring after about 3 weeks vs untreated controls
Method in brief: as §1

ALOMY [5] = assay: as above; format: in vivo, Alopecurus myosuroides; settings: dosage 320 g/ha, visual scoring after about 3 weeks
Method in brief: as §1

MATIN [6] = assay: Herbicidal pre-emergence action 2b (doubly sown, 1280 g/ha); format: in vivo, Matricaria inodora; settings: doubly sown pots, dosage 1280 g/ha, visual scoring after about 3 weeks
Method in brief: (§3)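 Weed seeds sown in sandy loam, two species per pot, covered with soil; compounds as WP or EC applied to soil surface as aqueous suspension/emulsion with 0.5% additive at 600 L/ha water. Greenhouse growth; visual % activity vs untreated controls after about 3 weeks (100% = dead, 0% = like control).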

POAAN = assay: as above; format: in vivo, Poa annua; settings: doubly sown pots, dosage 1280 g/ha, visual scoring after about 3 weeks
Method in brief: as §3

SMILES	Pre-emergence action against AVEFA in % (AVEFA)	Post-emergence action against ALOMY in % (ALOMY [1]; Dosage 80 g/ha)	Post-emergence action against ALOMY in % (ALOMY [1]; Dosage 320 g/ha)	herbicidal efficacy against harmful plants in the case of post-emergence treatment (in words) (harmful plants)	Post-emergence action against DIGSA in % (DIGSA; Dosage 320 g/ha)	Post-emergence action against LOLRI in % (LOLRI; Dosage 320 g/ha)	Post-emergence action against POLCO in % (POLCO; dosage 320 g/ha)	Post-emergence action against ABUTH in % (ABUTH; dosage 80 g/ha)	Post-emergence action against ABUTH in % (ABUTH; dosage 320 g/ha)	Pre-emergence action against VERPE in % (VERPE)	Post-emergence action against VIOTR in % (VIOTR [2]; dosage 80 g/ha)	Post-emergence action against VIOTR in % (VIOTR [2]; dosage 320 g/ha)	Pre-emergence action against ECHCG in % (ECHCG)	Post-emergence action against PHBPU in % (PHBPU; dosage 80 g/ha)	Post-emergence action against PHBPU in % (PHBPU; dosage 320 g/ha)	Pre-emergence action against MATIN in % (MATIN [3])	Pre-emergence action against VIOTR in % (VIOTR [4])	Pre-emergence action against ALOMY in % (ALOMY [5])	Pre-emergence action at 1280 g/ha against MATIN in % (MATIN [6])	Pre-emergence action at 1280 g/ha against POAAN in % (POAAN)	further results
COC(=O)C(C)Oc1nn(-c2cnccn2)c(-c2cncc(F)c2)c1Br (racemic) [Example I-08]	90%	100%	100%	good herbicidal efficacy	80%	90%	100%	80%	90%	100%	90%	90%	100%	80%	90%	90%	100%	100%			
CCOC(=O)COc1nn(-c2cnccn2)c(-c2ccccc2)c1Br [Example I-01]			90%	good herbicidal efficacy	80%	90%	80%		80%	90%	90%	90%	80%	80%	80%	90%		80%	100%	100%	Post-emergence action against POLCO in % (POLCO; dosage 80 g/ha): 80%
COC(=O)C(C)Oc1nn(-c2cnccn2)c(-c2ccnc(F)c2)c1Cl (racemic) [Example I-05]	80%	100%	100%	good herbicidal efficacy	90%	90%			80%	100%	90%	90%	90%				100%	100%	90%	100%	Post-emergence action against DIGSA in % (DIGSA; Dosage 80 g/ha): 80%; Post-emergence action against POLCO in % (POLCO; dosage 80 g/ha): 80%
COC(=O)[C@@H](C)Oc1nn(-c2cnccn2)c(-c2ccnc(F)c2)c1Br [Example I-34]	90%	80%	100%	good herbicidal efficacy	80%	80%	100%				90%	90%	80%		80%		100%	100%	100%	100%	
COC(=O)COc1nn(-c2cnccn2)c(-c2cncc(F)c2)c1Br [Example I-07]	90%	90%	100%	good herbicidal efficacy	90%	90%	90%	80%	90%	100%	80%	90%	100%	90%	90%	90%	100%	100%			Post-emergence action against DIGSA in % (DIGSA; Dosage 80 g/ha): 80%; Post-emergence action against LOLRI in % (LOLRI; Dosage 80 g/ha): 80%; Post-emergence action against POLCO in % (POLCO; dosage 80 g/ha): 80%
COC(=O)COc1nn(-c2cnccn2)c(-c2ccc(F)c(F)c2)c1Br [Example I-15]	80%	80%	80%	good herbicidal efficacy	90%	90%		80%	80%	100%	90%	90%	100%	90%	90%	100%	100%	90%			Post-emergence action against LOLRI in % (LOLRI; Dosage 80 g/ha): 90%
CCOC(=O)COc1nn(-c2cnccn2)c(-c2ccc(F)nc2)c1Cl [Example I-53]	90%			good herbicidal efficacy			90%	80%		90%	90%		100%	80%		100%	100%	100%	100%	100%	Post-emergence action against DIGSA in % (DIGSA; Dosage 80 g/ha): 90%; Post-emergence action against POLCO in % (POLCO; dosage 80 g/ha): 90%
COC(=O)C(C)Oc1nn(-c2cnccn2)c(-c2ccc(F)c(F)c2)c1Br (racemic) [Example I-16]	90%	90%	100%	good herbicidal efficacy	90%	90%	90%		80%	100%	80%	90%			90%	90%	100%	90%	100%	100%	

— patent publication US20230167088A1, “1-PYRAZINYLPYRAZOLYL-3-OXYALKYL ACIDS AND THEIR DERIVATIVES, AND THEIR USE FOR CONTROL OF UNDESIRED PLANT GROWTH” (BAYER AKTIENGESELLSCHAFT, priority 2020, published 2023)
